Experimental data from ChEMBL document CHEMBL3132815, “Design, synthesis and activities of 4/5-acyl-2-aminoimidazolyl analogues of oroidin for biofilm inhibition” (Medchemcomm, 2013).

Tested on: Staphylococcus aureus
Assay: Antibiofilm activity against Staphylococcus aureus ATCC 35556 assessed as inhibition of biofilm formation at 50 ug/ml
Assay type: functional
Details: not given

Q: For `O=C(NCC(=O)c1cnc2ncccn12)c1ccc[nH]1`, which inhibition at 50 µg/mL is on record?
A: -5.94%

Q: For `O=C(NCCC(O)c1cnc2ncccn12)c1cc(Br)c(Br)[nH]1` (stereo not given), which inhibition at 50 µg/mL is on record?
A: -2.2%

Q: `O=C(CCN1C(=O)c2ccccc2C1=O)c1cnc2ncccn12` was tested. Which inhibition at 50 µg/mL did it give?
A: 6.92%

Q: `O=C(NCCC(O)c1cnc2ncccn12)c1ccc[nH]1` (stereo not given) was tested. Which inhibition at 50 µg/mL did it give?
A: -6.5%

Q: With `O=C(CN1C(=O)c2ccccc2C1=O)c1cnc2ncccn12` as the compound, how does the inhibition at 50 µg/mL read?
A: -3.15%

Tested on: Staphylococcus aureus
Assay: Antibiofilm activity against methicillin-resistant Staphylococcus aureus assessed as inhibition of biofilm formation at 50 ug/ml
Assay type: functional
Details: not given

Q: For `O=C(NCC(=O)c1cnc2ncccn12)c1ccc[nH]1`, which inhibition at 50 µg/mL is on record?
A: -119%

Q: How did the inhibition at 50 µg/mL turn out when `O=C(NCCC(O)c1cnc2ncccn12)c1cc(Br)c(Br)[nH]1` (stereo not given) was run?
A: -20.9%

Q: With `O=C(CCN1C(=O)c2ccccc2C1=O)c1cnc2ncccn12` as the compound, how does the inhibition at 50 µg/mL read?
A: 18.7%

Q: For `O=C(NCCC(O)c1cnc2ncccn12)c1ccc[nH]1` (stereo not given), which inhibition at 50 µg/mL is on record?
A: -5.1%

Q: `O=C(CN1C(=O)c2ccccc2C1=O)c1cnc2ncccn12` was tested. Which inhibition at 50 µg/mL did it give?
A: -97.9%

Tested on: Staphylococcus epidermidis
Assay: Antibiofilm activity against Staphylococcus epidermidis GTC 18972 assessed as inhibition of biofilm formation at 50 ug/ml
Assay type: functional
Details: not given

Q: `O=C(NCC(=O)c1cnc2ncccn12)c1ccc[nH]1` was tested. Which inhibition at 50 µg/mL did it give?
A: -6.61%

Q: How did the inhibition at 50 µg/mL turn out when `O=C(NCCC(O)c1cnc2ncccn12)c1cc(Br)c(Br)[nH]1` (stereo not given) was run?
A: -33.1%

Q: Which inhibition at 50 µg/mL does the source give for `O=C(CCN1C(=O)c2ccccc2C1=O)c1cnc2ncccn12` here?
A: -11%

Q: `O=C(NCCC(O)c1cnc2ncccn12)c1ccc[nH]1` (stereo not given) was tested. Which inhibition at 50 µg/mL did it give?
A: 18.1%

Q: With `O=C(CN1C(=O)c2ccccc2C1=O)c1cnc2ncccn12` as the compound, how does the inhibition at 50 µg/mL read?
A: 8.1%

Tested on: Staphylococcus aureus
Assay: Antibacterial activity against methicillin-resistant Staphylococcus aureus 1094 assessed as planktonic growth at 50 ug/ml
Assay type: organism-based
Details: not given

Q: Which Activity does the source give for `O=C(NCC(=O)c1cnc2ncccn12)c1ccc[nH]1` here?
A: 20.67%

Q: `O=C(NCCC(O)c1cnc2ncccn12)c1cc(Br)c(Br)[nH]1` (stereo not given) was tested. Which Activity did it give?
A: -0.8%

Q: Which Activity does the source give for `O=C(CCN1C(=O)c2ccccc2C1=O)c1cnc2ncccn12` here?
A: 15.94%

Q: `O=C(NCCC(O)c1cnc2ncccn12)c1ccc[nH]1` (stereo not given) was tested. Which Activity did it give?
A: -7.9%

Q: With `O=C(CN1C(=O)c2ccccc2C1=O)c1cnc2ncccn12` as the compound, how does the Activity read?
A: 21.51%

Tested on: Staphylococcus aureus
Assay: Antibacterial activity against Staphylococcus aureus ATCC 35556 assessed as planktonic growth at 50 ug/ml
Assay type: organism-based
Details: not given

Q: How did the Activity turn out when `O=C(NCC(=O)c1cnc2ncccn12)c1ccc[nH]1` was run?
A: -4.75%

Q: For `O=C(NCCC(O)c1cnc2ncccn12)c1cc(Br)c(Br)[nH]1` (stereo not given), which Activity is on record?
A: 2.9%

Q: How did the Activity turn out when `O=C(CCN1C(=O)c2ccccc2C1=O)c1cnc2ncccn12` was run?
A: 2.31%

Q: `O=C(NCCC(O)c1cnc2ncccn12)c1ccc[nH]1` (stereo not given) was tested. Which Activity did it give?
A: 3.3%

Q: Which Activity does the source give for `O=C(CN1C(=O)c2ccccc2C1=O)c1cnc2ncccn12` here?
A: -6.07%

Tested on: Staphylococcus aureus
Assay: Antibacterial activity against methicillin-resistant Staphylococcus aureus assessed as planktonic growth at 50 ug/ml
Assay type: organism-based
Details: in vitro

Q: For `O=C(NCC(=O)c1cnc2ncccn12)c1ccc[nH]1`, which Activity is on record?
A: 3.76%

Q: With `O=C(NCCC(O)c1cnc2ncccn12)c1cc(Br)c(Br)[nH]1` (stereo not given) as the compound, how does the Activity read?
A: -5.1%

Q: `O=C(CCN1C(=O)c2ccccc2C1=O)c1cnc2ncccn12` was tested. Which Activity did it give?
A: 10.43%

Q: How did the Activity turn out when `O=C(NCCC(O)c1cnc2ncccn12)c1ccc[nH]1` (stereo not given) was run?
A: 6.1%

Q: For `O=C(CN1C(=O)c2ccccc2C1=O)c1cnc2ncccn12`, which Activity is on record?
A: 3.76%

Tested on: Pseudomonas aeruginosa
Assay: Antibacterial activity against Pseudomonas aeruginosa PAO1 assessed as planktonic growth at 50 ug/ml
Assay type: organism-based
Details: not given

Q: For `O=C(NCC(=O)c1cnc2ncccn12)c1ccc[nH]1`, which Activity is on record?
A: 3.14%

Q: With `O=C(NCCC(O)c1cnc2ncccn12)c1cc(Br)c(Br)[nH]1` (stereo not given) as the compound, how does the Activity read?
A: 14.1%

Q: `O=C(CCN1C(=O)c2ccccc2C1=O)c1cnc2ncccn12` was tested. Which Activity did it give?
A: -16.12%

Q: For `O=C(NCCC(O)c1cnc2ncccn12)c1ccc[nH]1` (stereo not given), which Activity is on record?
A: -19.1%

Q: Which Activity does the source give for `O=C(CN1C(=O)c2ccccc2C1=O)c1cnc2ncccn12` here?
A: -0.69%

Tested on: Pseudomonas aeruginosa
Assay: Antibiofilm activity against Pseudomonas aeruginosa PAO1 assessed as inhibition of biofilm formation at 50 ug/ml
Assay type: functional
Details: not given

Q: `O=C(NCC(=O)c1cnc2ncccn12)c1ccc[nH]1` was tested. Which inhibition at 50 µg/mL did it give?
A: 14.3%

Q: Which inhibition at 50 µg/mL does the source give for `O=C(NCCC(O)c1cnc2ncccn12)c1cc(Br)c(Br)[nH]1` (stereo not given) here?
A: -1.4%

Q: For `O=C(CCN1C(=O)c2ccccc2C1=O)c1cnc2ncccn12`, which inhibition at 50 µg/mL is on record?
A: 23%

Q: With `O=C(NCCC(O)c1cnc2ncccn12)c1ccc[nH]1` (stereo not given) as the compound, how does the inhibition at 50 µg/mL read?
A: 3.9%

Q: For `O=C(CN1C(=O)c2ccccc2C1=O)c1cnc2ncccn12`, which inhibition at 50 µg/mL is on record?
A: -7.64%

Tested on: Staphylococcus epidermidis
Assay: Antibacterial activity against Staphylococcus epidermidis 1457 assessed as planktonic growth at 50 ug/ml
Assay type: organism-based
Details: not given

Q: `O=C(NCC(=O)c1cnc2ncccn12)c1ccc[nH]1` was tested. Which Activity did it give?
A: 11.5%

Q: Which Activity does the source give for `O=C(NCCC(O)c1cnc2ncccn12)c1cc(Br)c(Br)[nH]1` (stereo not given) here?
A: 10.2%

Q: `O=C(CCN1C(=O)c2ccccc2C1=O)c1cnc2ncccn12` was tested. Which Activity did it give?
A: 15.13%

Q: For `O=C(NCCC(O)c1cnc2ncccn12)c1ccc[nH]1` (stereo not given), which Activity is on record?
A: 0.7%

Q: For `O=C(CN1C(=O)c2ccccc2C1=O)c1cnc2ncccn12`, which Activity is on record?
A: 11.1%

Tested on: Staphylococcus epidermidis
Assay: Antibacterial activity against Staphylococcus epidermidis GTC 18972 assessed as planktonic growth at 50 ug/ml
Assay type: organism-based
Details: not given

Q: With `O=C(NCC(=O)c1cnc2ncccn12)c1ccc[nH]1` as the compound, how does the Activity read?
A: 17.02%

Q: Which Activity does the source give for `O=C(NCCC(O)c1cnc2ncccn12)c1cc(Br)c(Br)[nH]1` (stereo not given) here?
A: 14.8%

Q: For `O=C(CCN1C(=O)c2ccccc2C1=O)c1cnc2ncccn12`, which Activity is on record?
A: 23.58%

Q: How did the Activity turn out when `O=C(NCCC(O)c1cnc2ncccn12)c1ccc[nH]1` (stereo not given) was run?
A: 1%

Q: For `O=C(CN1C(=O)c2ccccc2C1=O)c1cnc2ncccn12`, which Activity is on record?
A: 29.67%

Tested on: Staphylococcus aureus
Assay: Antibiofilm activity against methicillin-resistant Staphylococcus aureus 1094 assessed as inhibition of biofilm formation at 50 ug/ml
Assay type: functional
Details: not given

Q: With `O=C(NCC(=O)c1cnc2ncccn12)c1ccc[nH]1` as the compound, how does the inhibition at 50 µg/mL read?
A: 2.15%

Q: With `O=C(NCCC(O)c1cnc2ncccn12)c1cc(Br)c(Br)[nH]1` (stereo not given) as the compound, how does the inhibition at 50 µg/mL read?
A: 26.2%

Q: How did the inhibition at 50 µg/mL turn out when `O=C(CCN1C(=O)c2ccccc2C1=O)c1cnc2ncccn12` was run?
A: -53.2%

Q: How did the inhibition at 50 µg/mL turn out when `O=C(NCCC(O)c1cnc2ncccn12)c1ccc[nH]1` (stereo not given) was run?
A: 26.8%

Q: Which inhibition at 50 µg/mL does the source give for `O=C(CN1C(=O)c2ccccc2C1=O)c1cnc2ncccn12` here?
A: -67.5%

Tested on: Staphylococcus epidermidis
Assay: Antibiofilm activity against Staphylococcus epidermidis 1457 assessed as inhibition of biofilm formation at 50 ug/ml
Assay type: functional
Details: not given

Q: For `O=C(NCC(=O)c1cnc2ncccn12)c1ccc[nH]1`, which inhibition at 50 µg/mL is on record?
A: 7.6%

Q: With `O=C(NCCC(O)c1cnc2ncccn12)c1cc(Br)c(Br)[nH]1` (stereo not given) as the compound, how does the inhibition at 50 µg/mL read?
A: 19.6%

Q: For `O=C(CCN1C(=O)c2ccccc2C1=O)c1cnc2ncccn12`, which inhibition at 50 µg/mL is on record?
A: 10.6%

Q: `O=C(NCCC(O)c1cnc2ncccn12)c1ccc[nH]1` (stereo not given) was tested. Which inhibition at 50 µg/mL did it give?
A: 9.6%

Q: How did the inhibition at 50 µg/mL turn out when `O=C(CN1C(=O)c2ccccc2C1=O)c1cnc2ncccn12` was run?
A: 6.4%
